Results taken from paper PMC9841524, “Structure-Based Rational Design of Small α-Helical Peptides with Broad-Spectrum Activity against Multidrug-Resistant Pathogens” (Journal of Medicinal Chemistry, 2022).
Like-named read-outs stand apart in the source and are kept apart here. Where no end group is shown, it is not given here.

Assays:
[1] = CD spectroscopy, helicity; format: physicochemical; set-up: key to Δ[θ]222 induced by TFE / Δ[θ]222 induced by Liposomes: mean residue molar ellipticity, mdeg cm2/(dmol × res); details: for [θ]222 mean residue molar ellipticity, TFE / [θ]222 mean residue molar ellipticity, Liposomes / [θ]222 mean residue molar ellipticity, PBS: CD at 222 nm, 25 °C; for [θ]222 mean residue molar ellipticity, TFE: aqueous buffer containing 50% TFE; for [θ]222 mean residue molar ellipticity, Liposomes / Δ[θ]222 induced by Liposomes: bacterial membrane mimicking liposomes; for [θ]222 mean residue molar ellipticity, Liposomes: peptide:lipid molar ratio 1:1.05; for [θ]222 mean residue molar ellipticity, PBS: phosphate buffer saline pH 7.0; for Δ[θ]222 induced by TFE / Δ[θ]222 induced by Liposomes: difference to PBS; for Δ[θ]222 induced by TFE: 50% TFE; for % of helicity induced by TFE: increase in molar ellipticity at 222 nm in the presence of 50% TFE; for % of helicity induced by Liposomes: increase in molar ellipticity at 222 nm in the presence of liposomes;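 for % of helicity induced by Liposomes: share of the total helicity with liposomes gained over the same peptide in PBS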;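 for % of helicity induced by TFE: share of the total helicity in TFE gained over the same peptide in PBS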
Procedure: The CD spectra of peptides were recorded using a Jasco J-1500 CD spectrophotometer (Jasco, Easton, MD) at 25 °C with a 1 mm path length cell. Wavelengths from 190 to 260 nm were scanned with 1.0 nm step resolution, 100 nm/min speed, 0.4 s response time, and 1 nm bandwidth. CD spectra of the peptides were collected and averaged over three scans in 10 mM sodium phosphate buffer (pH 7.2), helix-inducing solvent 50% TFE (v/v), and bacterial mimic liposomes (75 μM lipid). Spectra were corrected by subtracting a baseline spectrum containing only buffer or 50% TFE or liposomes. The mean residue molar ellipticity was calculated using the formula [drawing 3] where Ab222 is the absorbance observed at 222 nm, MRW is the mean residue molecular weight, C is the concentration in mg/mL, and L is the path length.
Table S1. RP-HPLC retention times and CD spectroscopy analysis of the selected peptides Peptide tR (min)a [θ]222b Δ[θ]222 induced by % of helicity inducedc by PBS TFE Liposomes TFE Liposomes TFE Liposomes […]
atR (min) denotes the retention time at 25°C by RP-HPLC. bThe mean residue molar ellipticity [θ] 222 (mdeg cm2/(dmol × res)) at 222 nm was measured at 25 °C in phosphate buffer saline (PBS, pH 7.0), in aqueous buﬀer containing 50% TFE (TFE), or in presence of bacterial membrane mimicking liposomes (peptide:lipid […]
c% helix induced is the increase in the molar ellipticity at 222 nm (in percentage) of a peptide in the presence of TFE or liposomes.

[2] = system: P. aeruginosa (ATCC 27883); assay: MIC, standard microtiter dilution (CLSI); format: cell-based, Pseudomonas aeruginosa; details: broth microdilution (CLSI), CAMHB, 37 °C, 24 h
How it was run: (§1)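 Inoculum 10^6 CFU/mL in CAMHB against 2-fold peptide series; salt variants used 150 mM NaCl, 4.5 mM KCl, 6 mM NH4Cl, 1 mM MgCl2, 2 mM CaCl2, or 25% FBS.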

E. coli (ATCC 25922) = details: broth microdilution (CLSI), CAMHB, 37 °C, 24 h
How it was run: as §1

MRSA (ATCC BAA-1556) = details: broth microdilution (CLSI), CAMHB, 37 °C, 24 h
How it was run: as §1

[3] = system: K. pneumoniae (ATCCBAA-1705); assay: MIC, standard microtiter dilution (CLSI); format: cell-based, Klebsiella pneumoniae; details: broth microdilution (CLSI), CAMHB, 37 °C, 24 h
How it was run: as §1

[4] = system: human red blood cells (hRBCs); assay: Hemolytic assay; format: cell-based; details: 2 h, 37 °C
How it was run: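 Percent hemolysis uses PBS as 0% and 1% Triton X-100 as 100% references, from supernatant absorbance at 567 nm. Red cells (4% in PBS, equal volume) exposed 2 h at 37 °C without agitation to 2-fold serially diluted peptide.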

S. aureus (ATCC 29213) = assay: MIC, standard microtiter dilution (CLSI); format: cell-based; details: broth microdilution (CLSI), CAMHB, 37 °C, 24 h
How it was run: as §1

[5] = Relative hydrophobicity as RP-HPLC retention time; format: physicochemical; details: chromatographic, Phenomenex Luna C18 4 μm 150 × 4.6 mm, linear AB gradient 1% acetonitrile/min, 0.3 mL/min, A water 0.1% TFA, B acetonitrile 0.1% TFA, 25 °C
Procedure: The purity analysis of the peptides was conducted on a RP-HPLC system (Shimadzu; LC-20ADXR) by using a Phenomenex (Luna) analytical C18 column (4 μm, 150 × 4.6 mm). The mass of the purified peptides was determined in the positive-ion mode using Q-TOF LC/MS (Compass Hystar 4.1, Bruker, USA). The purity (>95%) and mass data of all the synthesized peptides are provided in the Supporting Information.
8. Comparative Hydrophobicity analysis
The purity of all synthesized peptides was determined using reverse phase analytical HPLC
(Shimadzu; LC-20ADXR). Below mentioned are the conditions used to conduct the purity
Column: Phenomenex (Luna), 4 um, C18, 150 × 4.6 mm
Mobile Phase: Buffer A-Water containing 0.1% TFA,
Buffer B-Acetonitrile containing 0.1% TFA
Figure S52. HPLC chromatogram of 6a.
(1 picture or pasted object on this page, not shown here)

[6] = 10^6 CFU/mL, highest MIC of three independent experiments in triplicate
[7] = hRBC suspension 4% in PBS, hemoglobin release at 567 nm, 1% Triton X-100 = 100%
[8] = value in parentheses (μM), hRBC 4% in PBS, 567 nm

Substance | [θ]222 mean residue molar ellipticity, TFE [1] | [θ]222 mean residue molar ellipticity, Liposomes [1] | [θ]222 mean residue molar ellipticity, PBS [1] | Δ[θ]222 induced by TFE [1] | Δ[θ]222 induced by Liposomes [1] | % of helicity induced by TFE [1] | % of helicity induced by Liposomes [1] | MIC, P. aeruginosa (ATCC 27883) [2, 6] | MIC, P. aeruginosa (ATCC 27883) ([2]; value in parentheses (μM)) | MIC, E. coli (ATCC 25922) (E. coli (ATCC 25922); [6]) | MIC, E. coli (ATCC 25922) (E. coli (ATCC 25922); value in parentheses (μM)) | MIC, MRSA (ATCC BAA-1556) (MRSA (ATCC BAA-1556); [6]) | MIC, MRSA (ATCC BAA-1556) (MRSA (ATCC BAA-1556); value in parentheses (μM)) | MIC, K. pneumoniae (ATCCBAA-1705) [3, 6] | MIC, K. pneumoniae (ATCCBAA-1705) ([3]; value in parentheses (μM)) | HC50 (concentration at which 50% hemolysis was observed) [4, 7] | HC50 (concentration at which 50% hemolysis was observed) [4, 8] | MIC, S. aureus (ATCC 29213) (S. aureus (ATCC 29213); [6]) | MIC, S. aureus (ATCC 29213) (S. aureus (ATCC 29213); value in parentheses (μM)) | tR, RP-HPLC retention time (measure of overall hydrophobicity) [5]
Ac-KWAKKWAKWWKK-NH2 [6d] | -18432 mdeg cm2/(dmol × res) | -24274 mdeg cm2/(dmol × res) | -13464 mdeg cm2/(dmol × res) | -4968 | -10810 | 26.95% | 44.53% | 100 µg/mL | 58.30 µM | 100 µg/mL | 58.30 µM | 100 µg/mL | 58.30 µM | 100 µg/mL | 58.30 µM | 345 µg/mL | 201.15 µM | 50 µg/mL | 29.15 µM | 32.81 min
KWAKKWWKWWKK-NH2 [6e] | -18419 mdeg cm2/(dmol × res) | -13181 mdeg cm2/(dmol × res) | -7968 mdeg cm2/(dmol × res) | -10451 | -5213 | 56.74% | 39.55% | 25 µg/mL | 13.98 µM | 25 µg/mL | 13.98 µM | 12.5 µg/mL | 6.99 µM | 50 µg/mL | 27.96 µM | 360 µg/mL | 201.32 µM | 12.5 µg/mL | 6.99 µM | 29.87 min
Ac-RWLRRWLRWWRR-NH2 [8c] | -13735 mdeg cm2/(dmol × res) | -19930 mdeg cm2/(dmol × res) | -8173 mdeg cm2/(dmol × res) | -5562 | -11757 | 40.49% | 58.99% | 12.5 µg/mL | 6.35 µM | 12.5 µg/mL | 6.35 µM | 6.2 µg/mL | 3.15 µM | 12.5 µg/mL | 6.35 µM | 30 µg/mL | 15.25 µM | 6.2 µg/mL | 3.15 µM | 41.20 min
KWAKKWAKWWKK-NH2 [6b] | -14689 mdeg cm2/(dmol × res) | -20391 mdeg cm2/(dmol × res) | -7476 mdeg cm2/(dmol × res) | -7212 | -12915 | 49.10% | 63.33% | > 100 µg/mL | > 59.77 µM | > 100 µg/mL | > 59.77 µM | 100 µg/mL | 59.77 µM | > 100 µg/mL | > 59.77 µM | > 500 µg/mL | > 298.85 µM | 100 µg/mL | 59.77 µM | 28.98 min
Ac-RWARRWARWWRR-NH2 [6c] | -18280 mdeg cm2/(dmol × res) | -20250 mdeg cm2/(dmol × res) | -10947 mdeg cm2/(dmol × res) | -7332 | -9303 | 40.11% | 45.93% | 100 µg/mL | 53.10 µM | 100 µg/mL | 53.10 µM | 50 µg/mL | 26.55 µM | > 100 µg/mL | > 53.10 µM | 110 µg/mL | 58.41 µM | 50 µg/mL | 26.55 µM | 34.61 min
